According to paper PMC3466269, “A Comprehensive Strategy to Discover Inhibitors of the Translesion Synthesis DNA Polymerase κ” (PLoS ONE, 2012):
Where two headings read alike, the source gives them in different places.

Tests used:
pol κ = settings: cited from earlier work
[1] = biological target: T1, Human pol κ (residues 19–526) (Homo sapiens, UniProt Q9UBT6); experiment: qHTS fluorescence-based DNA strand displacement assay; type: biochemical
T1 construct: Human pol κ (residues 19–526) was purified as previously reported; made in house
T1 sequence (Q9UBT6 19-526): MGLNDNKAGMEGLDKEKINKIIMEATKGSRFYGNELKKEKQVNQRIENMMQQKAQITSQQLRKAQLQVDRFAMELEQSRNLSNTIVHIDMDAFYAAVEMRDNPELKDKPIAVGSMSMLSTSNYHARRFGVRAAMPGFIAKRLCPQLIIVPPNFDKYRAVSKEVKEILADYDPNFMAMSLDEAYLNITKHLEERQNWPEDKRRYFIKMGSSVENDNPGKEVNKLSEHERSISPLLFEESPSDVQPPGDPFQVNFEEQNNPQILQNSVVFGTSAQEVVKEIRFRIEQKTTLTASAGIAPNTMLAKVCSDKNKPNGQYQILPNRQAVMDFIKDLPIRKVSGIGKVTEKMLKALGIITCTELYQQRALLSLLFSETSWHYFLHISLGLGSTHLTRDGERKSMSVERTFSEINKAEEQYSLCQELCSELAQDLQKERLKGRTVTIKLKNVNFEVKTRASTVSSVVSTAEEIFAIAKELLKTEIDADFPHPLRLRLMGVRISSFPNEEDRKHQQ
Description: The substrate used in qHTS was made by the annealing of unlabeled oligodeoxynucleotide primer (5′-TCACCCTCGTACGACTC-3′) and TAMRA-labeled reporter strand (5′-TTTTTTTTTTGC-6-TAMRA-3′) to oligodeoxynucleotide template labeled with BHQ-2 (5′-BHQ-2-[…]-3′) as originally described by Dorjsuren et al.. The annealing mixture of unlabeled primer, TAMRA-labeled reporter, and BHQ-2-labeled template in buffer containing 50 mM Tris-HCl, pH 8.0, 100 mM NaCl, and 5 mM MgCl2 was heated at 95°C for 5 min and allowed to cool gradually to room temperature. The substrate was then stored at −20°C as 50 µM stock.
qHTS was performed in 50 mM Tris-HCI, pH 8.0, 40 mM NaCl, 1 mM MgCl2, 0.01% Tween-20, 2 mM DTT, and 100 µM dTTP. 3 µL of reagents (buffer as negative control and pol κ in the remaining plate at 10 nM final concentration) were dispensed by Flying Reagent Dispenser™ (FRD) (Beckman Coulter, Inc., Fullerton, CA) into a 1,536-well plate. Compounds were delivered as 23 nL in DMSO solution via pintool transfer; vehicle-only control consisted of 23 nL DMSO. The plate was incubated for 15 min at room temperature, and then 1 µL of substrate (50 nM final concentration) was added to initiate the reaction. The plate was immediately transferred into ViewLux reader for kinetic fluorescence data collection.
To lay the foundation for the methodologies to discover and characterize inhibitors of pol κ, we used a fluorescent reporter strand displacement assay (Figure 1 and [27]). The library of bioactive small molecules was tested as seven-point dilution series, with the final concentrations ranging from 2.9 nM to 57 µM.

Human pol κ [2] = biological target: T2, Human pol κ (Homo sapiens, UniProt Q9UBT6); experiment: Radioactive gel-based primer extension assay on non-damaged DNA, pol κ; type: biochemical
T2 construct: Human pol κ (residues 19–526) was purified as previously reported; made in house
T2 sequence (Q9UBT6 19-526): T1 sequence (Q9UBT6 19-526)
Description: (§1) The reactions with pol κ, pol η, and pol ι were carried out in the buffers containing 25 mM Tris-HCl, pH 7.5, 8 mM MgCl2, 10% glycerol, 100 µg/mL bovine serum albumin, and 5 mM DTT. Buffers for pol δ reactions contained 40 mM Hepes-KOH, pH 6.8, 10% glycerol, 200 µg/mL bovine serum albumin, 1 mM DTT, and 8 mM MgCl2. Final concentration of pol κ, pol η, pol ι, or pol δ in the reaction was 0.25 nM, 1 nM, 2.5 nM, or 4 nM, respectively. In this assay, a polymerase was preincubated with the compound for 15 min at room temperature. Primer extensions were then initiated by the addition of DNA substrate at final concentration of 5 nM and carried out for 30 min at room temperature in the presence of 100 µM dCTP and dGTP. The reactions were terminated by the addition of an equal volume of a dye solution containing 95% (v/v) formamide, 10 mM EDTA, 0.03% (w/v) xylene cyanol, and 0.03% (w/v) bromphenol blue. Reaction products were separated through a 15% acrylamide gel containing 8 M urea and visualized with a PhosphorImager screen. The ratio of extended primer to the total amount of primer was measured using ImageQuant 5.2 software to calculate the percentage of primer extended. IC50 values were determined by fitting the data to variable slope four-parameter equations using GraphPad Prism 5.

Human pol κ [3] = biological target: T2, Human pol κ; experiment: Radioactive gel-based primer extension (TLS) past acrolein-derived ring-opened reduced form of γ-HOPdG, pol κ; type: biochemical
Description: as §1
The primary role of pol κ is to bypass DNA lesions. Therefore, it was critical to establish the assays to investigate the capability of these compounds to inhibit lesion bypass activity of pol κ. Radioactive gel-based primer extension reactions were carried out using a DNA substrate containing a site-specific acrolein-derived ring-opened reduced form of γ-HOPdG, a lesion that pol κ can efficiently bypass in vitro [13].

XP30RO cells (XP-V) = experiment: Cell survival assay, crystal violet, with or without UV; settings: crystal violet; inhibitor 6 h then UV 1.5, 4.5 or 7.5 J/m^2; candesartan cilexetil 24 µM
Description: Cell survival assays were carried out using crystal violet assays and CellTiter-Glo Luminescent Cell Viability Assays. In crystal violet assays, XP30RO cells were plated into clear 96-well plates at a density of 8000 cells/mL and incubated overnight at 37°C, 5% CO2. The cells were treated with (1) inhibitor alone for 6 h or (2) UV alone or (3) inhibitor alone for 6 h followed by UV irradiation. After 2 days, cells were fixed with 4% paraformaldehyde and stained with 0.5% crystal violet dye. The dye was dissolved in 10% acetic acid and absorbance measurement was taken at OD595 nm with Infinite® M200 plate reader (Tecan, Durham, NC). For the CellTiter-Glo Luminescent Cell Viability Assays, the same procedures as crystal violet assays were used except that white/clear bottom 96-well plates were used and cell viability was measured following manufacturer's recommendations.
XP30RO cells were treated with 24 µM of candesartan cilexetil alone, UV alone at 1.5 J/m^2, 4.5 J/m^2, or 7.5 J/m^2, or in combination. Percent survival was calculated by normalizing the data using the cell survival of untreated cells. The data were obtained from three independent experiments.

mouse pol ι = tested on: mouse pol ι; parameters: method as in PMID 19223184; settings: read-out: IC50 against pol ι; cited from earlier work
[4] = tested on: double-stranded DNA ladder; experiment: DNA intercalation assay (agarose gel shift of DNA ladder); type: binding; settings: 0.75 or 3 nmol compound with 1.5 nmol DNA, 1% agarose gel
Description: Candesartan cilexetil or ethidium bromide was incubated with 1.5 nmol of double-stranded DNA ladder for 15 min at room temperature in the buffer containing 50 mM Tris-HCl, pH 8.0, 0.01% Tween-20, 1 mM DTT, and 40 mM NaCl. The reaction mixtures were run on 1% agarose gel and stained with ethidium bromide (0.5 µg/ml) for visualization.
Figure 7 The non-DNA-intercalating property of candesartan cilexetil. Candesartan cilexetil or ethidium bromide was incubated with double-stranded DNA ladder, and the reaction products were run on 1% agarose gel and stained with ethidium bromide. Lane 1: No compound. Lane 2: 0.75 nmol of candesartan cilexetil was incubated with 1.5 nmol DNA. Lane 3: 3 nmol of candesartan cilexetil was incubated with 1.5 nmol DNA. Lane 4: 0.75 nmol of ethidium bromide was incubated with 1.5 nmol DNA. Lane 5: 3 nmol of ethidium bromide was incubated with 1.5 nmol DNA.

pol α = tested on: pol α; parameters: method as in PMID 20599777; settings: cited from earlier work

In the case of `CC1=CC[C@H]2C(C)(C)CCC[C@]2(C)[C@H]1CCCCCCCCCCCCCCCCC(=O)O` (relative stereo) [(1S*,4aS*,8aS*)-17-(1,4,4a,5,6,7,8,8a-octahydro-2,5,5,8a-tetramethylnaphthalen-1-yl)heptadecanoic acid], the IC50 (pol κ) is listed as 7.2 µM.
In the case of `C/C=C/c1occ(C(=O)c2c(OC)cc(OC)cc2C(=O)OC)c(=O)c1OC` [3-O-methylfunicone], the IC50 (pol κ) is given as 12.5 µM.
In the case of `CCCCCCCCCCCC(=O)Oc1cccc2c1C(=O)C=CC2=O` [C12:0-Acyl juglone], the IC50 (pol κ) is given as 6.8 µM.
In the case of `CC1(C)[C@@H](O)CC[C@]2(C)[C@H]3C(=O)C=C4[C@@H]5C[C@@](C)(C(=O)O)CC[C@]5(C)CC[C@@]4(C)[C@]3(C)CC[C@@H]12` [Glycyrrhetinic acid], the IC50 (pol κ) is listed as 15.8 µM.
For `CC(C)c1ccc2c(c1)c(SC(C)(C)C)c(CC(C)(C)C(=O)O)n2Cc1ccc(Cl)cc1` [MK-886], the IC50 ([1]; fluorescence strand displacement, 10 nM pol κ, 50 nM substrate, 100 µM dTTP, read-out: qHTS: IC50) was 30 µM, the IC50 (Human pol κ [2]; primer extension, non-damaged DNA, 0.25 nM pol κ, average ± standard error, three experiments, read-out: gel: non-damaged: IC50) was 13 ± 1.7 µM and the IC50 (Human pol κ [3]; primer extension, adducted DNA, 0.25 nM pol κ, average ± standard error, three experiments, read-out: gel: ring-opened reduced form of γ-HOPdG: IC50) was 14 ± 0.9 µM. The “Effect on UV-induced cytotoxicity” value (XP30RO cells (XP-V)) was “failed to enhance UV toxicity”.
In the case of `C/C=C/C(=O)C1=C(OC)OC(C)(/C=C/C=C/C(C)O)C1=O` (stereo not drawn) [Penicilliol A], the IC50 (mouse pol ι) is listed as 19.8 µM.
In the case of `COC1=C(C(=O)CC(C)O)C(=O)C(C)(/C=C/C=C/C(C)O)O1` (stereo not drawn) [Penicilliol B], the IC50 (mouse pol ι) is listed as 32.5 µM.
For `CC[n+]1c(-c2ccccc2)c2cc(N)ccc2c2ccc(N)cc21` [ethidium bromide], the “DNA migration pattern (intercalation)” value [4] was “bands shifted upwards”.
With `CC1=C(CC/C(C)=C/CCC2=CC[C@H](C3=CC(=O)O[C@H]3O)O[C@H]2O)C(C)(C)CCC1` [manoalide] the IC50 [1] was 9.5 µM, the IC50 (Human pol κ [2]) was 3.4 ± 0.9 µM and the IC50 (Human pol κ [3]) was 5.6 ± 0.9 µM. The “Effect on UV-induced cytotoxicity” value (XP30RO cells (XP-V)) was “failed to enhance UV toxicity”.
In the case of `O=C(OC[C@H]1O[C@@H](OC(=O)c2cc(O)c(O)c(O)c2)[C@H](OC(=O)c2cc(O)c(O)c(O)c2)[C@@H](OC(=O)c2cc(O)c(O)c(O)c2)[C@@H]1OC(=O)c1cc(O)c(O)c(O)c1)c1cc(O)c(O)c(O)c1` [penta-1,2,3,4,6-O-galloyl-beta-D-glucose], the IC50 (pol κ) is listed as 0.03 µM and the IC50 (pol α) is listed as 0.013 µM.
In the case of C18:1-Acyl juglone, the IC50 (pol κ) is given as 8.1 µM.
